Test [1] addresses T1, Polypeptide N-acetylgalactosaminyltransferase 2 (Homo sapiens, UniProt Q10471). Description: Binding affinity of human recombinant FLAG-tagged ppGalNAcT2 expressed in HEK293 cells assessed as association rate by SPR analysis. The note with it: read-out: kon (M-1-s-1). In general terms: In SPR one partner is held on a chip, and binding of the other changes the refractive index at the surface.

Test [2] addresses T1, Polypeptide N-acetylgalactosaminyltransferase 2. As to the kind of experiment: Binding affinity of human recombinant FLAG-tagged ppGalNAcT2 expressed in HEK293 cells assessed as dissociation rate by SPR analysis.

Molecules are shown by their SMILES.

T1 sequence (Q10471 whole entry): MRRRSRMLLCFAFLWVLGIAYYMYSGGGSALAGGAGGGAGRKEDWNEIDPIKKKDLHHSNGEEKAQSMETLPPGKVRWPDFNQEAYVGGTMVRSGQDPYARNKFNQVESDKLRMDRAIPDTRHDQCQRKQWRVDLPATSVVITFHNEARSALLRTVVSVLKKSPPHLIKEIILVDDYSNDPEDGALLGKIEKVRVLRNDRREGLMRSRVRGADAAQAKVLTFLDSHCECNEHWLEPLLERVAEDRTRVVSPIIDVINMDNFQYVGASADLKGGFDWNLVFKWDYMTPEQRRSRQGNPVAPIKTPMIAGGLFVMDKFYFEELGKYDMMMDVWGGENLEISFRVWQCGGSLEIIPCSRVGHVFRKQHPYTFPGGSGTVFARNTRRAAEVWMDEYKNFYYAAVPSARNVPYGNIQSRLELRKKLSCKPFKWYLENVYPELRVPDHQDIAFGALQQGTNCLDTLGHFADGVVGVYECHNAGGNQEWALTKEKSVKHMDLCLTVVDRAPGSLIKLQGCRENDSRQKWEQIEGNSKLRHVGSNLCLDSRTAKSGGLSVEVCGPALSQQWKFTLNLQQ

As for `O=c1oc2c(O)c(O)cc3c(=O)oc4c(O)c(O)cc1c4c23` [Elagic Acid], in test [1], the kon was found to be 2370 M⁻¹ s⁻¹. Moreover, in test [2], the koff came out at 0.000879 s⁻¹.
Take `O=c1oc2c(O)c(O)ccc2c2cc(O)c(O)cc12`: in test [1], the kon is 3530 M⁻¹ s⁻¹. For the same compound, in test [2], the koff came out at 0.00104 s⁻¹.
Turning to `O=C(O)c1cc(O)c(O)c(O)c1` [Gallic Acid, F], the on-rate (kon) in test [1] was 1450 M⁻¹ s⁻¹. Besides, in test [2], the koff is 0.00134 s⁻¹.

A word on the kon: it is a measure of how fast the partners come together. What is called koff is a measure of how fast the partners let go of each other.

The record behind these values is BindingDB's records for doi:10.1016/j.bmc.2019.06.020 (Shanghai Jiao Tong University, 2019).
